Reference: US11319286B2, “Heterocyclic compound and application thereof” (Takeda Pharmaceutical Company Limited, priority 2017, dated 2022)

Biological target: T1, human orexin type 2 receptor (hOX2R) (Homo sapiens, UniProt O43614)
T1 construct: expressed in transfected cells
T1 sequence (O43614 1-444): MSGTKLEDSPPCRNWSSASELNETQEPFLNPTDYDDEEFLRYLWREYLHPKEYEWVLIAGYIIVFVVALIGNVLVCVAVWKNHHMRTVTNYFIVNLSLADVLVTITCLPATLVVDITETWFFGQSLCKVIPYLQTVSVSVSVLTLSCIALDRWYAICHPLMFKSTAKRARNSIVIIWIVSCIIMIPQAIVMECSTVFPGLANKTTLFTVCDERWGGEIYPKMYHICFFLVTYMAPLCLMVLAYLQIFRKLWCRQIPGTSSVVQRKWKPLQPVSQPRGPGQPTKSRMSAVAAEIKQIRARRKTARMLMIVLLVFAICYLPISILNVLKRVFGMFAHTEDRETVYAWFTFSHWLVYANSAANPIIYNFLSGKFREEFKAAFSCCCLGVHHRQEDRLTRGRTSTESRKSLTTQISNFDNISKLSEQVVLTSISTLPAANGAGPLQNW
Test: Measurement of orexin type 2 receptor agonist activity (calcium fluorescence, Fluo-4 AM, FDSS)
Assay type: cell-based
Conditions: CHO cells forcibly expressing human OX2 receptor; 100% = orexin A (human) 10 nM, 0% = DMSO
From the text: To obtain a cell clone stably expressing human orexin type 2 receptor, human orexin type 2 receptor cDNA was inserted into pcDNA3.1(+) plasmid vector (Invitrogen), and a plasmid DNA for expression of human orexin type 2 receptor (pcDNA3.1(+)/hOX2R) was cloned. The plasmid DNA was introduced into CHO-dhfr cell by an electroporation method, and human orexin type 2 receptor expressing clone cells were obtained by limiting dilution method by using G418 drug resistance as a selection marker.
CHO cells forcibly expressing human OX2 receptor were seeded in each well of 384 well black transparent bottom plate (BD Falcon) at 7,500 cells/well, and cultured for one day in a 5% CO2 incubator at 37° C. After removal of the medium in the cell plate, assay buffer A containing a calcium indicator (HBSS (Thermo Fisher Scientific), 20 mM HEPES (Thermo Fisher Scientific), 0.1% BSA (Wako Pure Chemical Industries, Ltd. or Sigma-Aldrich), 2.5 μg/mL Fluo-4 AM (DOJINDO Chemical), 0.08% Pluronic F127 (DOJINDO Chemical), 1.25 mM probenecid (DOJINDO Chemical)) was added at 30 μL/well. The plate was stood for 30 min in a 5% CO2 incubator at 37° C., and further stood at room temperature for 30 min. A test compound prepared by diluting with assay buffer B (HBSS, 20 mM HEPES, 0.1% BSA) was added at 10 μL/well, and the fluorescence value was measured by FDSSμCELL (Hamamatsu Photonics K.K.) every one sec for 1 min, and thereafter every two sec for 1 min 40 sec. The activity (%) of the test compound was calculated assuming that variation in the fluorescence value when DMSO was added instead of the test compound was 0%, and variation in the fluorescence value when orexin A (human) (PEPTIDE INSTITUTE, INC.) was added at the final concentration of 10 nM was 100%. Unless otherwise specified, the maximum agonist activity of each compound was 90% or more, when the maximum agonist activity of orexin A was considered as 100%.

EC50 [nM]	Structure (SMILES)
130	COC(=O)N1CC[C@H](NS(C)(=O)=O)[C@@H]1CO[C@H]1CC[C@@H](c2ccccc2)CC1 (relative stereo) [Example 1, methyl cis-3-((methylsulfonyl)amino)-2-(((cis-4-phenylcyclohexyl)oxy)methyl)pyrrolidine-1-carboxylate]
3600	CS(=O)(=O)N[C@H]1CCN[C@H]1CO[C@H]1CC[C@@H](c2ccccc2)CC1 (relative stereo) [Example 2, N-(cis-2-(((cis-4-phenylcyclohexyl)oxy)methyl)pyrrolidin-3-yl)methanesulfonamide]
240	CCOC(=O)N1CC[C@H](NS(C)(=O)=O)[C@@H]1CO[C@H]1CC[C@@H](c2ccccc2)CC1 (relative stereo) [Example 3, ethyl cis-3-((methylsulfonyl)amino)-2-(((cis-4-phenylcyclohexyl)oxy)methyl) pyrrolidine-1-carboxylate]
47	CS(=O)(=O)N[C@H]1CCN(C(=O)C2CC2)[C@H]1CO[C@H]1CC[C@@H](c2ccccc2)CC1 (relative stereo) [Example 4, N-(cis-1-(cyclopropylcarbonyl)-2-(((cis-4-phenylcyclohexyl)oxy)methyl)pyrrolidin-3-yl)methanesulfonamide]
760	CS(=O)(=O)N[C@H]1CCN(C(=O)CC(F)(F)F)[C@H]1CO[C@H]1CC[C@@H](c2ccccc2)CC1 (relative stereo) [Example 5, N-(cis-2-(((cis-4-phenylcyclohexyl)oxy)methyl)-1-(3,3,3-trifluoropropanoyl)pyrrolidin-3-yl)methanesulfonamide]
17	CS(=O)(=O)N[C@H]1CCN(C(=O)N2CCC2)[C@H]1CO[C@H]1CC[C@@H](c2ccccc2)CC1 (relative stereo) [Example 6, N-(cis-1-(azetidin-1-ylcarbonyl)-2-(((cis-4-phenylcyclohexyl)oxy)methyl)pyrrolidin-3-yl)methanesulfonamide]
40	CS(=O)(=O)N[C@H]1CCN(C(=O)C2CCC2)[C@H]1CO[C@H]1CC[C@@H](c2ccccc2)CC1 (relative stereo) [Example 7, N-(cis-1-(cyclobutylcarbonyl)-2-(((cis-4-phenylcyclohexyl)oxy)methyl)pyrrolidin-3-yl)methanesulfonamide]
13	CN(C)C(=O)N1CC[C@H](NS(C)(=O)=O)[C@@H]1CO[C@H]1CC[C@@H](c2ccccc2)CC1 (relative stereo) [Example 8, cis-N,N-dimethyl-3-((methylsulfonyl)amino)-2-(((cis-4-phenylcyclohexyl)oxy)methyl)pyrrolidine-1-carboxamide]
270	CN(C)C(=O)N1CC[C@H](NS(C)(=O)=O)[C@@H]1CO[C@H]1CC[C@@H](c2ccccc2C(F)(F)F)CC1 (relative stereo) [Example 9, cis-3-((methanesulfonyl)amino)-N,N-dimethyl-2-(((cis-4-(2-(trifluoromethyl)phenyl)cyclohexyl)oxy)methyl)pyrrolidine-1-carboxamide]
410	CC(C)(O)C(=O)N1CC[C@H](NS(C)(=O)=O)[C@@H]1CO[C@H]1CC[C@@H](c2ccccc2)CC1 (relative stereo) [Example 10, N-(cis-1-(2-hydroxy-2-methylpropanoyl)-2-(((cis-4-phenylcyclohexyl)oxy)methyl)pyrrolidin-3-yl)methanesulfonamide]
82	CN(C)C(=O)N1CC[C@H](NS(C)(=O)=O)[C@@H]1COC1CCN(c2ncc(F)cn2)CC1 (relative stereo) [Example 11, cis-2-(((1-(5-fluoropyrimidin-2-yl)piperidin-4-yl)oxy)methyl)-3-((methanesulfonyl)amino)-N,N-dimethylpyrrolidine-1-carboxamide]
